From ChEMBL document CHEMBL1145380, “Optimization of 1,3,4-benzotriazepine-based CCK(2) antagonists to obtain potent, orally active inhibitors of gastrin-mediated gastric acid secretion” (J Med Chem, 2007)

Columns and labels:
[1] = molecular target: T1, Cholecystokinin receptor type A (Homo sapiens, UniProt P32238); assay: Displacement of [3H]L-364718 from human recombinant CCK1 receptor expressed in CHOK1 cells; type: cell-based, CHO-K1
T1 sequence (P32238 whole entry): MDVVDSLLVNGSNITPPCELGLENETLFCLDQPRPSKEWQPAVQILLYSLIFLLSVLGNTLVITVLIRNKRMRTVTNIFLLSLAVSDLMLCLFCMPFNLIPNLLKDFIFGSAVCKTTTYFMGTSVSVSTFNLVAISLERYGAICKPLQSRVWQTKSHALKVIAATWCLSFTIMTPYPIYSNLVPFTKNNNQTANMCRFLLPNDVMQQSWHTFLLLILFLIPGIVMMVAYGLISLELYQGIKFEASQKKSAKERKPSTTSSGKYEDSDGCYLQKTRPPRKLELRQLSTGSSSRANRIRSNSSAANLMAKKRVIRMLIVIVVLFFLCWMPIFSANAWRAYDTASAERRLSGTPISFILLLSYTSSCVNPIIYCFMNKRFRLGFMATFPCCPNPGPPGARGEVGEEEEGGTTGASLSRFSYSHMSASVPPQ

[2] = molecular target: T2, Gastrin/cholecystokinin type B receptor (Canis lupus familiaris, UniProt P30552); assay: Displacement of [125I]BH-[…] from CCK2 receptor in canine gastric mucosa; type: tissue-based
T2 sequence (P30552 whole entry): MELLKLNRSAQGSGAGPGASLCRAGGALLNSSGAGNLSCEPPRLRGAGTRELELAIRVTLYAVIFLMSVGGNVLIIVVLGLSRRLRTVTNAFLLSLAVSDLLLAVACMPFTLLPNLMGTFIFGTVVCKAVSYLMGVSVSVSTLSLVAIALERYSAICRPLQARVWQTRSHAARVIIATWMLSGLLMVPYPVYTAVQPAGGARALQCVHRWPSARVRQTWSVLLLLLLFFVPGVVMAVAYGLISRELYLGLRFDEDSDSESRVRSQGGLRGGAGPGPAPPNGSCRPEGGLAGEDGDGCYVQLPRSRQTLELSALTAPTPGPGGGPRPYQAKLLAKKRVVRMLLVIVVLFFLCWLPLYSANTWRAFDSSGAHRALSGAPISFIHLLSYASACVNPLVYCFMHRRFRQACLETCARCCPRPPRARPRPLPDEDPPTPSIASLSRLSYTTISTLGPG

[3] = molecular target: T3, Gastrin/cholecystokinin type B receptor (Canis lupus familiaris) (UniProt P30552); assay: Inhibition of pentagastrin-stimulated gastric acid secretion in intragastrically dosed conscious gastric fistula dog; type: functional, organism-based; conditions: Stomach
T3 sequence (whole entry): T2 sequence (P30552 whole entry)

[4] = molecular target: T4, Gastrin/cholecystokinin type B receptor (Homo sapiens, UniProt P32239); assay: Displacement of [125I]BH-CCK-8S from human recombinant CCK2 receptor expressed in NIH3T3 cells
T4 sequence (P32239 whole entry): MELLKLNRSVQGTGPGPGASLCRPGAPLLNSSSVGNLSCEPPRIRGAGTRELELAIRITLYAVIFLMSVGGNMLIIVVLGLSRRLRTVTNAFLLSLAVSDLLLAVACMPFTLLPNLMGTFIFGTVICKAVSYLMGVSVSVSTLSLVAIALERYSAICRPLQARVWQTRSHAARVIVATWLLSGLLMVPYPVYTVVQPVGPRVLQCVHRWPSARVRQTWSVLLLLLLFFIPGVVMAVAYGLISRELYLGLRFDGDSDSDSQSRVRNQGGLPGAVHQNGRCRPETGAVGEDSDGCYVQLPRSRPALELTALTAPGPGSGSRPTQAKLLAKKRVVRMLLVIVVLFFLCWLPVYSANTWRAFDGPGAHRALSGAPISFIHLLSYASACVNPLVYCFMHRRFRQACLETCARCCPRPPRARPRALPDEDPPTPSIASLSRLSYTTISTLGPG

[5] = molecular target: T1, Cholecystokinin receptor type A; assay: Displacement of [3H]L-364718 from human recombinant CCK1 receptor expressed in PC3 cells; type: cell-based, PC-3
[6] = molecular target: T3, Gastrin/cholecystokinin type B receptor (Canis lupus familiaris); assay: Inhibition of pentagastrin-stimulated gastric acid secretion in conscious gastric fistula dog at 1 mg/kg, iv; type: functional, organism-based; parameters: dose 1 mg/kg; conditions: Stomach
[7] = molecular target: T3, Gastrin/cholecystokinin type B receptor (Canis lupus familiaris); assay: Inhibition of pentagastrin-stimulated gastric acid secretion in conscious gastric fistula dog at 0.05 mg/kg, iv; type: functional, organism-based; parameters: dose 0.05 mg/kg; conditions: Stomach
[8] = molecular target: T4, Gastrin/cholecystokinin type B receptor; assay: Displacement of […] from human recombinant CCK2 receptor expressed in NIH3T3 cells; type: cell-based
[9] = molecular target: T5, Gastrin/cholecystokinin type B receptor (Rattus norvegicus, UniProt P30553); assay: Antagonist activity at CCK2 receptor in perfused rat stomach assessed as inhibition of pentagastrin-stimulated gastric acid secretion; type: functional, tissue-based; conditions: read-out: pA2 (converted)
T5 sequence (P30553 whole entry): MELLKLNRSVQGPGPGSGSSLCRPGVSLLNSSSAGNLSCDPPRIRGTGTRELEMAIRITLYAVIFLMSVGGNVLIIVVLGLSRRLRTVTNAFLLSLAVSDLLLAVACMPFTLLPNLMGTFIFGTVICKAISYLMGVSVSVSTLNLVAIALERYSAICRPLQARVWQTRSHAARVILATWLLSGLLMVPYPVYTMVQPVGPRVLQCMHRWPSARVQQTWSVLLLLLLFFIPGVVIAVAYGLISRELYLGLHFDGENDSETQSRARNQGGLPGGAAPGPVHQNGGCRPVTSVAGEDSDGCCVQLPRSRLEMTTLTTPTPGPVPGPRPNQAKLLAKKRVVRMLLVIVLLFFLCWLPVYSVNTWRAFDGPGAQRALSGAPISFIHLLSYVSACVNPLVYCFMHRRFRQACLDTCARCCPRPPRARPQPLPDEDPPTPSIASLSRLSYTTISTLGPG

[10] = molecular target: T3, Gastrin/cholecystokinin type B receptor (Canis lupus familiaris); assay: Inhibition of pentagastrin-stimulated gastric acid secretion in iv dosed conscious gastric fistula dog; type: functional, organism-based; conditions: Stomach
[11] = Volume of distribution at steady state in dog at 2.5 mg/kg, iv; type: ADME, organism-based, Canis lupus familiaris; parameters: dose 2.5 mg/kg, route intravenous; conditions: in vivo, read-out: Vdss
[12] = Plasma clearance in dog at 2.5 mg/kg, iv; type: ADME, organism-based, Canis lupus familiaris; parameters: dose 2.5 mg/kg, route intravenous
[13] = Cmax in po dosed dog; type: ADME, organism-based, Canis lupus familiaris; parameters: route oral; conditions: in vivo
[14] = Bioavailability in po dosed dog; type: ADME, organism-based, Canis lupus familiaris; conditions: in vivo
[15] = Half life beta in po dosed dog; type: ADME, organism-based, Canis lupus familiaris; conditions: in vivo, read-out: beta t1/2 (converted)
[16] = molecular target: T3, Gastrin/cholecystokinin type B receptor (Canis lupus familiaris); assay: Inhibition of pentagastrin-stimulated gastric acid secretion in intraduodenal bolus dosed conscious dual gastric fistula dog; type: functional, organism-based; conditions: Stomach

| SMILES | Ki [1] [nM] | Ki [2] [nM] | Ki [4] [nM] | Ki [5] [nM] | further results |
| --- | --- | --- | --- | --- | --- |
| CC(C)(C)C(=O)CN1C(=O)N(CC(=O)Nc2cccc(-c3nc(=O)o[nH]3)c2)N=C(C2CCCCC2)c2ccccc21 | 589 | 4.47 | 0.2 |  | Activity [3]: Dose-dependent effect |
| Cc1ccccc1C(=O)CN1C(=O)N(CC(=O)Nc2cccc(C(=O)O)c2)N=C(C2CCCCC2)c2ccccc21 |  | 26.3 | 7.59 | > 10000 |  |
| O=C(O)c1cccc(NC(=O)c2nc(C3CCCCC3)[nH]c2COC23CC4CC(CC(C4)C2)C3)c1 |  |  | 19.5 | > 10000 | inhibition [6]: 66%; inhibition [7]: 97% |
| CC(C)CC1=NN(CC(=O)Nc2cccc(C(=O)O)c2)C(=O)N(CC(=O)C(C)(C)C)c2ccccc21 |  |  |  | 7080 | Ki [8]: 89.1 nM |
| CC(C)(C)C(=O)CN1C(=O)N(CC(=O)Nc2ccc3ccn(CC(=O)O)c3c2)N=C(C2CCCCC2)c2ccccc21 | 550 | 2.4 | 0.295 |  |  |
| CNc1cccc(NC(=O)N[C@@H]2N=C(c3ccccn3)c3ccccc3N(CC(=O)C(C)(C)C)C2=O)c1 [NETAZEPIDE] | 28.8 |  |  |  | inhibition [6]: 66%; inhibition [7]: 97% |
| CC(C)CCN1C(=O)N(CC(=O)Nc2cccc(C(=O)O)c2)N=C(C2CCCCC2)c2ccccc21 |  |  | 20.4 | > 10000 |  |
| CC(C)(C)C(=O)CN1C(=O)N(CC(=O)Nc2cccc(C(=O)O)c2)N=C(C2CCCCCC2)c2ccccc21 |  |  | 4.79 | 5750 |  |
| CN1C(=O)N(CC(=O)Nc2cccc(C(=O)O)c2)N=C(C2CCCCC2)c2ccccc21 |  |  | 1200 | > 10000 |  |
| CC1(C(=O)CN2C(=O)N(CC(=O)Nc3cccc(C(=O)O)c3)N=C(C3CCCCC3)c3ccccc32)CCCC1 | 3980 |  |  |  | Ki [8]: 1.2 nM |
| O=C(CN1N=C(C2CCCCC2)c2ccccc2N(CC(=O)C2CCCC2)C1=O)Nc1cccc(C(=O)O)c1 |  | 7.08 | 1 | > 10000 | Kb [9]: 1.95 nM |
| O=C(CN1N=C(C2CCCCC2)c2ccccc2N(CC(=O)N2CCCC2)C1=O)Nc1cccc(C(=O)O)c1 |  |  | 16.2 | > 10000 |  |
| CN(c1cccc(NC(=O)CN2N=C(C3CCCCC3)c3ccccc3N(CC(=O)C(C)(C)C)C2=O)c1)c1nn[nH]n1 |  | 4.68 | 1.95 | 6460 | Kb [9]: 24 nM |
| CC(C)(C)C(=O)CN1C(=O)N(CC(=O)Nc2cccc(CC(=O)O)c2)N=C(C2CCCCC2)c2ccccc21 |  | 5.25 | 2.14 | > 10000 | Kb [9]: 9.77 nM; Activity [10]: Dose-dependent effect |
| O=C(CN1N=C(C2CCCCC2)c2ccccc2N(CC(=O)C2CCCC2)C1=O)Nc1cccc(-c2nc(=O)o[nH]2)c1 | 468 | 4.47 | 0.107 |  | Kb [9]: 1.82 nM; Vd [11]: 0.13 L/kg; clearance [12]: 3.33 mL/min/kg; Cmax [13]: 15 µM; bioavailability [14]: 41%; half-life [15]: 4.1 h |
| CC(C)(C)C(=O)CN1C(=O)N(CC(=O)Nc2cccc(OCC(=O)O)c2)N=C(C2CCCCC2)c2ccccc21 |  |  | 5.5 | 4070 |  |
| O=C(O)Cc1cccc(NC(=O)CN2N=C(C3CCCCC3)c3ccccc3N(CC(=O)C3CCCC3)C2=O)c1 | > 10000 | 6.31 | 0.282 |  |  |
| CC(C)(C)C(=O)CN1C(=O)N(CC(=O)Nc2cccc(C(=O)O)c2)N=C(C2CCCC2)c2ccccc21 |  |  | 24 | > 10000 |  |
| O=C(O)CSc1cccc(NC(=O)CN2N=C(C3CCCCC3)c3ccccc3N(CC(=O)C3CCCC3)C2=O)c1 | 2090 | 4.79 |  |  |  |
| CC(C)(C)C(=O)CN1C(=O)N(CC(=O)Nc2cccc(NCC(=O)O)c2)N=C(C2CCCCC2)c2ccccc21 |  |  | 6.17 | 8510 |  |
| CC(C)(C)C(=O)CN1C(=O)N(CC(=O)Nc2cccc(SCC(=O)O)c2)N=C(C2CCCCC2)c2ccccc21 |  | 5.75 | 0.646 | 646 | Kb [9]: 2.75 nM |
| CC(=O)CN1C(=O)N(CC(=O)Nc2cccc(C(=O)O)c2)N=C(C2CCCCC2)c2ccccc21 |  |  | 331 | > 10000 |  |
| CC(C)(C)C(=O)CN1C(=O)N(CC(=O)Nc2cccc(-c3nn[nH]n3)c2)N=C(C2CCCCC2)c2ccccc21 | 1740 | 3.16 | 1 |  | Kb [9]: 7.76 nM |
| CC(C)(C)C(=O)CN1C(=O)N(CC(=O)Nc2cccc(S(=O)(=O)CC(=O)O)c2)N=C(C2CCCCC2)c2ccccc21 |  |  | 4.27 | > 10000 |  |
| O=C(CN1N=C(C2CCCCC2)c2ccccc2N(CC(=O)C2CCCC2)C1=O)Nc1cccc(-c2noc(=O)[nH]2)c1 |  |  |  |  | ID50 [10]: < 0.03 mg/kg; ID50 [3]: 0.016 mg/kg; Activity [16]: Dose-dependent effect |
| O=C(O)CCc1cccc(NC(=O)CN2N=C(C3CCCCC3)c3ccccc3N(CC(=O)C3CCCC3)C2=O)c1 | 2510 | 4.27 | 0.339 |  |  |
